The data set is described as follows: Stability assessed as half life at pH 7.4. Type of data set: physicochemical. The following applies: buffer.

`CC(Cc1ccc(O)c(O)c1)C(C)Cc1ccc(O)c(O)c1` (stereo unspecified) [NORDIHYDROGUAIARETIC ACID]: the half-life – broadly, the time in which the quantity being followed falls by half – was 3 h.

Values taken from ChEMBL document CHEMBL1156599, “Nordihydroguaiaretic acid autoxidation produces a schisandrin-like dibenzocyclooctadiene lignan” (J Nat Prod, 2008).
